Source: US20150159167A1, “Plants Tolerant to HPPD Inhibitor Herbicides” (Bayer CropScience AG, priority 2009, published 2015)

Legend:
[1] = biological target: Synechococcus sp. HPPD "SEQ ID No. 5"; assay: HPLC assay of HPPD activity, in vitro kinetic properties; assay type: biochemical; conditions: 2 mM HPP
Experimental: Km, Vmax, and kcat values for different HPPD enzyme preparations and Ki, K1=Kon, and K−1=Koff for different HPPD inhibitors were determined using a HPLC assay for measurements of HPPD activity. […] All assays were started by the addition of HPPD enzyme to the assay mixture and stopped at a series of times between 0 and 240 s by addition of 200 μl of the reaction mixture to reaction assay tubes containing 20 μl 10% perchloric acid. Precipitated protein was pelleted by a 5 minute centrifugation at 10,000 g. […] A standard set of concentrations of HGA were used to provide a standard curve in order to calibrate the 292 nm absorbance of the HGA peak versus HGA concentration.
For Km and Vmax value determinations the initial rates of the HPPD reaction at different substrate concentrations were determined from plots of HGA formed versus time and fitted to the Michaelis-Menten equation for unireactant enzymes using the ID Business Solutions Ltd. (idbs.com) XLfit software suite. For the determination of Ki, K1=Kon, and K=−1=Koff values the time-courses of the HPPD reaction at different inhibitor concentrations were fitted to the equations for Mechanism A, competitive inhibition, for tight-binding inhibitors (Cha, S. (1975) Tight-binding inhibitors-I. Kinetic behaviour. Biochemical Pharmacology 24, 2177-2185) using the ID Business Solutions Ltd. XLfit software suite
(§1) In below given table 1, “Km” (Michaelis-Menten constant) means the kinetic parameter that is used to characterise an enzyme, and it is defined as the concentration of substrate that permits half maximal rate of the reaction. Km is further defined as the substrate concentration at which the reaction rate reaches half of its maximum value (Vmax/2) where Vmax has the meaning of being the maximum velocity of the reaction.
(§2) Kon=K1 equals the association rate constant of the […] binding and Koff=K−1 equals the rate constant of the enzyme-inhibitor complex dissociation. Ki defines the inhibition constant.

[2] = system: T0 rice plants containing FMP38e; assay: Rice glasshouse trial, response to tembotrione; assay type: in vivo; conditions: 100 g AI/ha, 7 DAT
Experimental: T0 rooted plantlets (either selected on phosphinothricin alone or on phosphinothricin supplemented with tembotrione) were transferred to soil in the glasshouse. Following an acclimation period, sufficiently grown plants were treated with the different HPPD inhibitor herbicides. As an example, T0 plants were sprayed with tembotrione of formulation type WP20 100 g AI/ha supplemented with ammonium sulfate and methyl ester raps oil. Seven days after the spray application, the symptoms due to the application of the herbicide were evaluated and compared the symptoms observed on wild type plants submitted to the same treatment.
The plants were classified in three categories based on the phenotype developed in response to the herbicide seven days after the treatment.

[3] = biological target: T1, Arabidopsis thaliana HPPD "SEQ ID No. 10" (Arabidopsis thaliana, UniProt P93836); assay: HPLC assay of HPPD activity, in vitro kinetic properties; assay type: biochemical
T1 construct: Preparation of Synechococcus sp; Ala + 6xHis (N); made in house; host or cells: E. coli K-12 BL21 (pQE30-AtHPPD)
T1 sequence (P93836 with tags, fused parts or gaps): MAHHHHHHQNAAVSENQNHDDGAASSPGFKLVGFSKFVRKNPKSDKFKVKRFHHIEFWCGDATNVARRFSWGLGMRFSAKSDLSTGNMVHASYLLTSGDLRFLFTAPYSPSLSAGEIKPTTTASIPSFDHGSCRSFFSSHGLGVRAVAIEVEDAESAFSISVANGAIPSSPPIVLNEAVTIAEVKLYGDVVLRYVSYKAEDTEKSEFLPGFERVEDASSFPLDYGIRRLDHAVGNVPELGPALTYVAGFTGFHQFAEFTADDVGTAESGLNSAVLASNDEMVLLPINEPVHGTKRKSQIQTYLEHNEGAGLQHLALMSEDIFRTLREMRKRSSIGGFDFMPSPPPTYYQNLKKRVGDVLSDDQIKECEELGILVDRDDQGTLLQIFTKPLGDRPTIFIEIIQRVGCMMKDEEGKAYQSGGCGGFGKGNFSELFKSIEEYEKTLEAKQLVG
Experimental: Km, Vmax, and kcat values for different HPPD enzyme preparations and Ki, K1=Kon, and K−1=Koff for different HPPD inhibitors were determined using a HPLC assay for measurements of HPPD activity. […] All assays were started by the addition of HPPD enzyme to the assay mixture and stopped at a series of times between 0 and 240 s by addition of 200 μl of the reaction mixture to reaction assay tubes containing 20 μl 10% perchloric acid. Precipitated protein was pelleted by a 5 minute centrifugation at 10,000 g.
For Km and Vmax value determinations the initial rates of the HPPD reaction at different substrate concentrations were determined from plots of HGA formed versus time and fitted to the Michaelis-Menten equation for unireactant enzymes using the ID Business Solutions Ltd. (idbs.com) XLfit software suite.
as §1, §2

SMILES: CS(=O)(=O)c1ccc(C(=O)C2C(=O)CCCC2=O)c(Cl)c1COCC(F)(F)F [Tembotrione, 2-[2-chloro-4-(methylsulfonyl)-3-[(2,2,2,-tri-fluoroethoxy)methyl]benzoyl]-1,3-cyclo-hexanedione]
- Ki [1]: 1200 nM
- k1 (Kon) [1]: 41000 M⁻¹ s⁻¹
- k−1 (Koff) [1]: 0.05 s⁻¹
- Class I (no injuries), number of plants [2]: 9
- Class II (injury: 10-40%), number of plants [2]: 8
- Class III (injury: 41-100%), number of plants [2]: 8
- kon ([3]; read-out: k1 (Kon)): 230000 M⁻¹ s⁻¹
- koff ([3]; read-out: k−1 (Koff)): 0.0035 s⁻¹
